In paper PMC6792352, “Limited Chemical Structural Diversity Found to Modulate Thyroid Hormone Receptor in the Tox21 Chemical Library” (Environmental Health Perspectives, 2019):
Where a name gives a salt, the structure may show the parent alone.

Test: in vitro
Conditions: rat, gh3-tre-luc cells

| Structure (SMILES) | CC50 at 24 h (AC50 (uM) modified / 1000) [µM] | other results |
| --- | --- | --- |
| CO[C@@]1(NC(=O)[C@H](C(=O)O)c2ccc(O)cc2)C(=O)N2C(C(=O)O)=C(CSc3nnnn3C)CO[C@@H]21 [Moxalactam disodium] | > 20 |  |
| COc1c(N2C[C@@H]3CCCN[C@@H]3C2)c(F)cc2c(=O)c(C(=O)O)cn(C3CC3)c12 [Moxifloxacin hydrochloride] | > 50 |  |
| CC(=O)Oc1cc(C(C)C)c(OCCN(C)C)cc1C [Moxisylyte hydrochloride] | > 20 |  |
| COc1nc(C)nc(Cl)c1N=C1NCCN1 [Moxonidine] | > 20 |  |
| O=C(O)[C@@H](O)[C@H](O)[C@H](O)[C@@H](O)C(=O)O [Mucic acid] | > 50 |  |
| O=C/C(Cl)=C(/Cl)C(=O)O [Mucochloric acid] |  | CC50 at 24 h (AC50 (uM) modified / 1000, Tox21_110001=Tox21_201305, viability, 1 nM T3 present, 24 h): 74 µM; CC50 at 24 h (AC50 (uM) modified / 1000, Tox21_110001=Tox21_302857, viability, 1 nM T3 present, 24 h): 63.6 µM |
| C/C(=C\C(=O)OCCCCCCCCC(=O)O)C[C@@H]1OC[C@H](C[C@@H]2O[C@H]2[C@@H](C)[C@H](C)O)[C@@H](O)[C@H]1O [Mupirocin] | > 50 |  |
| COc1c(C(C)(C)C)cc([N+](=O)[O-])c(C)c1[N+](=O)[O-] [Musk ambrette] |  | CC50 at 24 h (AC50 (uM) modified / 1000, Tox21_110001=Tox21_201195, viability, 1 nM T3 present, 24 h): > 90 µM |
| CC(=O)c1c(C)c([N+](=O)[O-])c(C(C)(C)C)c([N+](=O)[O-])c1C [Musk ketone] | 80.9 |  |
| CCCCC(C#N)(Cn1cncn1)c1ccc(Cl)cc1 (stereo not drawn) [Myclobutanil] | > 90 |  |
| COc1c(C)c2c(c(O)c1C/C=C(\C)CCC(=O)OCCN1CCOCC1)C(=O)OC2 [Mycophenolate mofetil] | 1.07 |  |
| COc1c(C)c2c(c(O)c1C/C=C(\C)CCC(=O)O)C(=O)OC2 [Mycophenolic acid] | 1.55 |  |
| CCCCCCCCCCCCCCNCCO [Myralact] | > 50 |  |
| C=CC(=C)CCC=C(C)C [Myrcene] | > 90 |  |
| CCCCCCC(=O)CCCCCC/C=C/C[C@@H](O)[C@H](O)[C@@](N)(CO)C(=O)O [Myriocin] | > 50 |  |
| C=CCc1cc(OC)c2c(c1)OCO2 [Myristicin] |  | CC50 at 24 h (AC50 (uM) modified / 1000, Tox21_110001=Tox21_200172, viability, 1 nM T3 present, 24 h): > 100 µM |
| CCCCCCCCCCCCCC[N+](C)(C)C [Myristyltrimethylammonium chlorideN,N,N-Trimethyltetradecan-1-aminium chloride] | 9.07 |  |
| NC(=O)CC[C@H](Nc1ccc([N+](=O)[O-])cc1)C(=O)O [N2-(4-Nitrophenyl)-L-glutamine hydrochloride] | > 90 |  |
| CNC=Nc1ccc(C)cc1C [N'-(2,4-Dimethylphenyl)-N-methylformamidine] |  | CC50 at 24 h (AC50 (uM) modified / 1000, Tox21_110001=Tox21_301746, viability, 1 nM T3 present, 24 h): > 90 µM |
| CNC(=O)N(c1ccccc1)c1ccccc1 [N'-Methyl-N,N-diphenylurea] | > 90 |  |
| CN(C)CCCNCCCN(C)C [N'-[3-(Dimethylamino)propyl]-N,N-dimethylpropane-1,3-diamine] | > 90 |  |
| C[Si](NC1CCCCC1)(NC1CCCCC1)NC1CCCCC1 [N,N',N''-Tricyclohexyl-1-methylsilanetriamine] | > 90 |  |
| CCC(C)Nc1ccc(NC(C)CC)cc1 (stereo not drawn) [N,N'-Bis(1-methylpropyl)-1,4-benzenediamine] | 14 |  |
| c1ccc2cc(Nc3ccc(Nc4ccc5ccccc5c4)cc3)ccc2c1 [N,N'-Di-2-naphthyl-p-phenylenediamine] | > 90 |  |
| CC(C)(C)NCCNC(C)(C)C [N,N'-Di-tert-butylethane-1,2-diamine] | > 90 |  |
| c1ccc(CNCCNCc2ccccc2)cc1 [N,N'-Dibenzylethane-1,2-diamine dihydrochloride] | > 50 |  |

| Structure (SMILES) | CC50 at 24 h (AC50 (uM) modified / 1000) [µM] | other results |
| --- | --- | --- |
| CCCCNC(=S)NCCCC [N,N'-Dibutylthiourea] | > 90 |  |
| CCCCNC(=O)NCCCC [N,N'-Dibutylurea] | > 90 |  |
| S=C(NC1CCCCC1)NC1CCCCC1 [N,N'-Dicyclohexylthiourea] | > 90 |  |
| CCN(C(=O)N(CC)c1ccccc1)c1ccccc1 [N,N'-Diethylcarbanilide] | > 90 |  |
| CCNC(=S)NCC [N,N'-Diethylthiourea] | > 90 |  |
| CNC(=S)NC [N,N'-Dimethylthiourea] | > 90 |  |
| CNC(=O)NC [N,N'-Dimethylurea] | > 90 |  |
| c1ccc(Nc2ccc(Nc3ccccc3)cc2)cc1 [N,N'-Diphenyl-p-phenylenediamine] | 33.3 |  |
| CC(CN=Cc1ccccc1O)N=Cc1ccccc1O (stereo not drawn) [N,N'-Disalicylidene-1,2-diaminopropane] | > 90 |  |
| C=CC(=O)NCNC(=O)C=C [N,N'-Methylenebisacrylamide] | > 90 |  |
| C(/C=C/C=C/Nc1ccccc1)=Nc1ccccc1 [N,N'-Penta-1,3-dien-1-yl-5-ylidenedianiline hydrochloride] | > 90 |  |
| Cc1ccc(N(C)C)cc1 [N,N,4-Trimethylaniline] | > 90 |  |
| CCCCN(CCCC)CCCCCCN(CCCC)CCCC [N,N,N',N'-Tetrabutyl-1,6-hexanediamine] | > 90 |  |
| CC(O)CN(CCN(CC(C)O)CC(C)O)CC(C)O (stereo not drawn) [N,N,N',N'-Tetrakis(2-Hydroxypropyl)ethylenediamine] | > 90 |  |
| CN(C)CCCN(C)C [N,N,N',N'-Tetramethyl-1,3-propanediamine] | > 5 |  |
| CN(C)c1ccc(N(C)C)cc1 [N,N,N',N'-Tetramethyl-p-phenylenediamine] | 58.6 |  |
| CN(C)CCN(C)C [N,N,N',N'-Tetramethylethylenediamine] |  | CC50 at 24 h (AC50 (uM) modified / 1000, Tox21_110001=Tox21_200241, viability, 1 nM T3 present, 24 h): > 90 µM |
| C[N+](C)(C)CCCCCC[N+](C)(C)C [N,N,N,N',N',N'-Hexamethylhexane-1,6-diaminium] | > 50 |  |
| C=C(C)C(=O)NCCC[N+](C)(C)C [N,N,N-Trimethyl-3-[(2-methylacryloyl)amino]propan-1-aminium chloride] | > 90 |  |
| CCCCCCCCCCCCCCCCCC[N+](C)(C)C [N,N,N-Trimethyloctadecan-1-aminium chloride] | 13.4 |  |
| CCCCCCCCCCCC(=O)N(CCO)CCO [N,N-Bis(2-hydroxyethyl)dodecanamide] | 42.5 |  |
| O=CN(CCO)CCO [N,N-Bis(2-hydroxyethyl)formamide] | > 90 |  |
| CCCC[N+](C)(CCCC)CCCC [N,N-Dibutyl-N-methylbutan-1-aminium chloride] | > 90 |  |
| c1ccc2sc(SN(C3CCCCC3)C3CCCCC3)nc2c1 [N,N-Dicyclohexyl-2-benzothiazolesulfenamide] | > 100 |  |
| CC[N+](C)(CC)CC [N,N-Diethyl-N-methylethanaminium chloride] | > 90 |  |
| CCN(CC)c1ccccc1 [N,N-Diethylaniline] | > 90 |  |

| Structure (SMILES) | CC50 at 24 h (AC50 (uM) modified / 1000) [µM] | other results |
| --- | --- | --- |
| CCN(CC)c1ccc(N)cc1 [N,N-Diethylbenzene-1,4-diamine] | 64.7 |  |
| CCN(CC)C1CCCCC1 [N,N-Diethylcyclohexylamine] | > 90 |  |
| CCCCCCCCCCCC(=O)N(CC)CC [N,N-Diethyldodecanamide] | > 90 |  |
| CCN(CC)CCO [N,N-Diethylethanolamine] | > 100 |  |
| CCN(O)CC [N,N-Diethylhydroxylamine] | > 90 |  |
| CCN(CC)C(=O)c1cccnc1 [N,N-Diethylnicotinamide] | > 50 |  |
| CCN(CC)CCc1c[nH]c2ccccc12 [N,N-Diethyltryptamine fumarate] |  | CC50 at 24 h (AC50 (uM) modified / 1000, Tox21_110001=Tox21_112891, viability, 1 nM T3 present, 24 h): > 100 µM |
| CC(C)N(c1ccccc1)C(C)C [N,N-Diisopropylaniline] | > 90 |  |
| CN(C)C(Cc1ccccc1)c1ccccc1 (stereo not drawn) [N,N-Dimethyl-1,2-diphenylethanamine] |  | CC50 at 24 h (AC50 (uM) modified / 1000, Tox21_110001=Tox21_112703, viability, 1 nM T3 present, 24 h): > 50 µM |
| CN(C)C(=O)CNC(=O)Cc1ccccc1 [N,N-Dimethyl-2-(2-phenylacetamido)acetamide] | > 50 |  |
| CCCCCCCCCCCCCCCCCC[N+](C)(C)CCC[Si](OC)(OC)OC [N,N-Dimethyl-N-(3-(trimethoxysilyl)propyl) octadecan-1-aminium chloride] | > 50 |  |
| CCCCCCCCCCCCCCCCCC[N+](C)(C)Cc1ccccc1 [N,N-Dimethyl-N-benzyl-N-octadecylammonium chloride] | 11.4 |  |
| CN(C)c1ccc(N)cc1 [N,N-Dimethyl-p-phenylenediamine] |  | CC50 at 24 h (AC50 (uM) modified / 1000, Tox21_110001=Tox21_200191, viability, 1 nM T3 present, 24 h): 59.3 µM |
| CC(=O)CC(=O)N(C)C [N,N-Dimethylacetoacetamide] | > 90 |  |
| CN(C)c1ccccc1 [N,N-Dimethylaniline] |  | CC50 at 24 h (AC50 (uM) modified / 1000, Tox21_110001=Tox21_201813, viability, 1 nM T3 present, 24 h): > 90 µM; CC50 at 24 h (AC50 (uM) modified / 1000, Tox21_110001=Tox21_300036, viability, 1 nM T3 present, 24 h): > 100 µM |
| CN(C)Cc1ccccc1 [N,N-Dimethylbenzylamine] | > 50 |  |
| CN(C)C1CCCCC1 [N,N-Dimethylcyclohexylamine] | > 90 |  |
| CCCCCCCCCC(=O)N(C)C [N,N-Dimethyldecanamide] | > 90 |  |
| CCCCCCCCCC[N+](C)(C)[O-] [N,N-Dimethyldecylamine oxide] | > 90 |  |
| CCCCCCCCCCCCN(C)C [N,N-Dimethyldodecan-1-amine] | > 90 |  |
| CN(C)C=O [N,N-Dimethylformamide] | > 90 |  |
| CCCCCCCC(=O)N(C)C [N,N-Dimethyloctanamide] | > 90 |  |
| CCCCCCCCN(C)C [N,N-Dimethyloctylamine] | > 90 |  |
| CCCCC(=O)N(C)C [N,N-Dimethylpentanamide] | > 90 |  |
